Data from US5679675A, “8-amino-10-(azabicycloalkyl)-pyrido[1,2,3-d,e][1,3,4]benzoxadiazine derivatives” (Bayer Aktiengesellschaft, priority 1994, dated 1997).
≈ marks a conversion by molar mass, not a printed value. Like-named read-outs stand apart in the source and are kept apart here.

Key:
Test in all cases: MIC, serial dilution method on Iso-Sensitest agar
Format in all cases: cell-based
Staphylococcus aureus = settings: about 20 hours
Method: (§1) The minimum inhibitory concentrations (MIC) of the compounds according to the invention were determined by serial dilution methods on Iso-Sensitest agar (Oxoid). For each test substance, a series of agar plates was prepared which contained decreasing concentrations of the active compound at, in each case, double dilution. The agar plates were inoculated with a multipoint inoculator (Denley). For inoculation, overnight cultures of the pathogens were reed which had previously been diluted such that each inoculation point contained about 10^4 colony-forming particles. The inoculated agar plates were incubated at 37° C., and the growth of microorganism was read off after about 20 hours. The MIC value (μg/ml) indicates the lowest active compound concentration at which no growth was to be detected with the naked eye.

Micrococcus luteus = settings: strain 9341, 37° C., about 20 hours
Method: as §1

Providencia sp. = settings: 20 h, about 20 hours
Method: as §1

Klebsiella pneumoniae = settings: 37° C., about 20 hours
Method: as §1

Enterococcus faecalis = settings: 20 h, about 20 hours
Method: as §1

Acinetobacter = settings: strain 14068, 37° C., about 20 hours
Method: as §1

E. coli = settings: Escherichia coli, 37° C., about 20 hours
Method: as §1

[1] = ATCC29213, 20 h, strain ATCC 29213, 37° C.
[2] = Klebsiella pneumoniae, strain 8085, read-out: MIC

`CN1COc2c(N3C[C@H]4[C@H](N)CC=C[C@H]4C3)c(F)c(N)c3c(=O)c(C(=O)O)cn1c23` (relative stereo) [Example 11, 8-Amino-10-((1SR,2RS,6RS)-2-amino-8-azabicyclo[4.3.0]non-4-en-8-yl)-9-fluoro-3-methyl-7-oxo-2,3-dihydro-7H-pyrido[1,2,3-d,e][1,3,4]benzoxadiazine-6-carboxylic acid] was tested, and the MIC (Staphylococcus aureus; 20 h, strain 133, 37° C.) was at most 0.015 µg/mL, the MIC (Staphylococcus aureus; 20 h, strain ICB 25701, 37° C.) was 0.5 µg/mL (≈ 1.2 µM) and the MIC (Staphylococcus aureus; 20 h, strain ICB 25768, 37° C.) was 16 µg/mL (≈ 38.5 µM). For the same molecule, the MIC (Staphylococcus aureus; [1]) was at most 0.015 µg/mL, the MIC (Micrococcus luteus) was 0.5 µg/mL (≈ 1.2 µM) and the MIC (Providencia sp.; strain 12012, 37° C.) was at most 0.015 µg/mL. For the same molecule, the MIC (Providencia sp.; strain 12052, 37° C.) was 16 µg/mL (≈ 38.5 µM), the MIC (Klebsiella pneumoniae; [2]) was at most 0.015 µg/mL and the MIC (Klebsiella pneumoniae; strain 63) was at most 0.015 µg/mL. It also gave an MIC (Enterococcus faecalis; strain 9790, 37° C.) of at most 0.015 µg/mL, an MIC (Enterococcus faecalis; strain 27101, 37° C.) of at most 0.015 µg/mL and an MIC (Acinetobacter) of at most 0.015 µg/mL. It also gave an MIC (E. coli; ATCC25922, strain ATCC 25922) of at most 0.015 µg/mL and an MIC (E. coli; strain Neumann) of at most 0.015 µg/mL.
`CNC1C=CCC2CN(c3c(F)c(N)c4c(=O)c(C(=O)O)cn5c4c3OCN5C)CC21` (centres unmarked) [Example 4, 8-Amino-9-fluoro-3-methyl-10-(2-methylamino-8-azabicyclo[4.3.0]non-3-en-8-yl)-7-oxo-2,3-dihydro-7H-pyrido[1,2,3-d,e][1,3,4]benzoxadiazine-6-carboxylicacid] was tested, and the MIC (Staphylococcus aureus; 20 h, strain 133, 37° C.) was at most 0.015 µg/mL, the MIC (Staphylococcus aureus; 20 h, strain ICB 25701, 37° C.) was 0.5 µg/mL (≈ 1.16 µM) and the MIC (Staphylococcus aureus; 20 h, strain ICB 25768, 37° C.) was 1 µg/mL (≈ 2.33 µM). It also gave an MIC (Staphylococcus aureus; [1]) of at most 0.015 µg/mL, an MIC (Micrococcus luteus) of at most 0.015 µg/mL and an MIC (Providencia sp.; strain 12012, 37° C.) of 0.06 µg/mL (≈ 0.14 µM). It also gave an MIC (Providencia sp.; strain 12052, 37° C.) of 4 µg/mL (≈ 9.31 µM), an MIC (Klebsiella pneumoniae; [2]) of 0.06 µg/mL (≈ 0.14 µM) and an MIC (Klebsiella pneumoniae; strain 63) of 0.06 µg/mL (≈ 0.14 µM). It also gave an MIC (Enterococcus faecalis; strain 9790, 37° C.) of 0.06 µg/mL (≈ 0.14 µM), an MIC (Enterococcus faecalis; strain 27101, 37° C.) of 0.06 µg/mL (≈ 0.14 µM) and an MIC (Acinetobacter) of at most 0.015 µg/mL. It also gave an MIC (E. coli; ATCC25922, strain ATCC 25922) of 0.03 µg/mL (≈ 0.0699 µM) and an MIC (E. coli; strain Neumann) of 0.03 µg/mL (≈ 0.0699 µM).
`CN1COc2c(N3CC4CC=CC(N)C4C3)c(F)c(N)c3c(=O)c(C(=O)O)cn1c23` (centres unmarked) [Example 5, 8-Amino-10-(2-amino-8-azabicyclo[4.3.0]non-3-en-8-yl)-9-fluoro-3-methyl-7-oxo-2,3-dihydro-7H-pyrido[1,2,3-d,e][1,3,4]benzoxadiazine-6-carboxylic acid] was tested, and the MIC (Staphylococcus aureus; 20 h, strain 133, 37° C.) was at most 0.015 µg/mL, the MIC (Staphylococcus aureus; 20 h, strain ICB 25701, 37° C.) was 0.125 µg/mL (≈ 0.301 µM) and the MIC (Staphylococcus aureus; 20 h, strain ICB 25768, 37° C.) was 0.25 µg/mL (≈ 0.602 µM). The MIC (Staphylococcus aureus; [1]) was at most 0.015 µg/mL, the MIC (Micrococcus luteus) was at most 0.015 µg/mL and the MIC (Providencia sp.; strain 12012, 37° C.) was at most 0.015 µg/mL. The MIC (Providencia sp.; strain 12052, 37° C.) was 2 µg/mL (≈ 4.81 µM), the MIC (Klebsiella pneumoniae; [2]) was 0.03 µg/mL (≈ 0.0722 µM) and the MIC (Klebsiella pneumoniae; strain 63) was 0.03 µg/mL (≈ 0.0722 µM). For the same molecule, the MIC (Enterococcus faecalis; strain 9790, 37° C.) was 0.03 µg/mL (≈ 0.0722 µM), the MIC (Enterococcus faecalis; strain 27101, 37° C.) was 0.03 µg/mL (≈ 0.0722 µM) and the MIC (Acinetobacter) was at most 0.015 µg/mL. It also gave an MIC (E. coli; ATCC25922, strain ATCC 25922) of at most 0.015 µg/mL and an MIC (E. coli; strain Neumann) of at most 0.015 µg/mL.
With `CC1C=CC(N)C2CN(c3c(F)c(N)c4c(=O)c(C(=O)O)cn5c4c3OCN5C)CC12` (centres unmarked) [Example 7, 8-Amino-10-(2-amino-5-methyl-8-azabicyclo[4.3.0]non-3-en-8-yl)-9-fluoro-3-methyl-7-oxo-2,3-dihydro-7-H-pyrido[1,2,3-d,e][1,3,4]benzoxadiazine-6-carboxylic acid] the MIC (Staphylococcus aureus; 20 h, strain 133, 37° C.) was at most 0.015 µg/mL, the MIC (Staphylococcus aureus; 20 h, strain ICB 25701, 37° C.) was 0.25 µg/mL (≈ 0.582 µM) and the MIC (Staphylococcus aureus; 20 h, strain ICB 25768, 37° C.) was 0.5 µg/mL (≈ 1.16 µM). The MIC (Staphylococcus aureus; [1]) was at most 0.015 µg/mL, the MIC (Micrococcus luteus) was at most 0.015 µg/mL and the MIC (Providencia sp.; strain 12012, 37° C.) was 0.03 µg/mL (≈ 0.0699 µM). It also gave an MIC (Providencia sp.; strain 12052, 37° C.) of 2 µg/mL (≈ 4.66 µM), an MIC (Klebsiella pneumoniae; [2]) of 0.03 µg/mL (≈ 0.0699 µM) and an MIC (Klebsiella pneumoniae; strain 63) of 0.03 µg/mL (≈ 0.0699 µM). It also gave an MIC (Enterococcus faecalis; strain 9790, 37° C.) of 0.03 µg/mL (≈ 0.0699 µM), an MIC (Enterococcus faecalis; strain 27101, 37° C.) of at most 0.015 µg/mL and an MIC (Acinetobacter) of at most 0.015 µg/mL. It also gave an MIC (E. coli; ATCC25922, strain ATCC 25922) of at most 0.015 µg/mL and an MIC (E. coli; strain Neumann) of at most 0.015 µg/mL.
